Results reported in US20060069132A1, “Azolecarboxamide herbicides” (priority 2004, published 2006).

Experiments:
blackgrass = assay: Test B postemergence herbicide test; type: in vivo, Alopecurus myosuroides; details: postemergence
In short: (§1)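 Greenhouse test; postemergence application to plants at 1–4 leaves (2–18 cm); paddy species at 2 leaves; evaluated visually vs controls at 13–15 days; scale 0–100 (100 = complete control).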

barnyardgrass [1] = assay: Test B flooded paddy test; type: in vivo, Echinochloa crus-galli; details: 1000 g ai/ha, scale 0 to 100 (0 no effect, 100 complete control)
In short: as §1

cocklebur = assay: Test B pre-/postemergence herbicide test; type: in vivo, Xanthium strumarium; details: for Cocklebur plant response rating: postemergence
In short: (§2)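 Greenhouse pot assay with simultaneous preemergence (treated seed) and postemergence (2–18 cm seedlings) applications of surfactant-containing, non-phytotoxic solvent formulations. Response scored visually 13–15 days later on a 0–100 scale, 100 meaning complete control.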

corn = assay: Test B pre-/postemergence herbicide test; type: in vivo, Zea mays; details: for Corn plant response rating: postemergence
In short: (§3)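 Response was scored visually 13 to 15 days after treatment against untreated greenhouse controls, 0 meaning no effect and 100 complete control. Formulations (solvent mixture plus surfactant) went onto soil after planting, onto foliage of 1- to 4-leaf plants, and onto 2-leaf plants in a flooded paddy set including rice and barnyardgrass.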

ducksalad = assay: Test B flooded paddy test; type: in vivo, Heteranthera limosa; details: 1000 g ai/ha, scale 0 to 100 (0 no effect, 100 complete control)
In short: as §1

[2] = test system: small flower umbrella sedge; assay: Test B flooded paddy test; type: in vivo, Cyperus difformis; details: 1000 g ai/ha, scale 0 to 100 (0 no effect, 100 complete control)
In short: as §1

large crabgrass = assay: Test B pre-/postemergence herbicide test; type: in vivo, Digitaria sanguinalis; details: for Crabgrass, Large plant response rating: postemergence
In short: as §3

wild oat = assay: Test B postemergence herbicide test; type: in vivo, Avena fatua; details: postemergence
In short: (§4)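 Scale 0–100: zero equals no visible effect, 100 complete control, judged by eye relative to controls. Timing: 13 to 15 days in greenhouse post-treatment. Growth stage at spraying: two leaves (paddy) or one to four leaves, 2–18 cm (postemergence).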

Surinam grass = assay: Test B pre-/postemergence herbicide test; type: in vivo, Urochloa decumbens; details: for Surinam Grass plant response rating: postemergence
In short: as §3

wheat = assay: Test B postemergence herbicide test; type: in vivo, Triticum aestivum; parameters: key to Wheat plant response rating: 0 = no effect, 100 = complete control; details: postemergence
In short: as §4

giant foxtail = assay: Test B pre-/postemergence herbicide test; type: in vivo, Setaria faberi; details: for Foxtail, Giant plant response rating: postemergence
In short: as §3

barnyardgrass [3] = assay: Test B pre-/postemergence herbicide test; type: in vivo, Echinochloa crus-galli; details: for Barnyardgrass plant response rating: postemergence
In short: as §2

pigweed = assay: Test B pre-/postemergence herbicide test; type: in vivo, Amaranthus retroflexus; details: for Pigweed plant response rating: postemergence
In short: as §3

rice = assay: Test B flooded paddy test; type: in vivo, Oryza sativa; details: 1000 g ai/ha, scale 0 to 100 (0 no effect, 100 complete control)
In short: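 Postemergence plants were sprayed with formulated test chemicals at 2 to 18 cm height (1- to 4-leaf stage); paddy species were grown to the 2-leaf stage. After 13 to 15 days in a greenhouse, injury was rated visually against untreated controls on a 0–100 scale (0 = no effect, 100 = complete control).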

velvetleaf = assay: Test B pre-/postemergence herbicide test; type: in vivo, Abutilon theophrasti; details: for Velvetleaf plant response rating: postemergence
In short: as §3

[4] = 125 g ai/ha, visual rating, scale 0 (no effect) to 100 (complete control)
[5] = 500 g ai/ha, scale 0 to 100, 0 is no effect, 100 is complete control
[6] = 125 g ai/ha, 0 = no effect, 100 = complete control, preemergence
[7] = 500 g ai/ha, visual rating, 0 = no effect, 100 = complete control, preemergence

CCn1nc(C(C)(C)C)cc1C(=O)Nc1cccc(OC(F)(F)F)c1 [Compound 272]
Blackgrass plant response rating (blackgrass; [4]): 60
Blackgrass plant response rating (blackgrass; [5]): 100
Barnyardgrass plant response rating (barnyardgrass [1]): 50
Cocklebur plant response rating (0 to 100 scale) (cocklebur; [6]): 0
Plant response rating, Cocklebur (cocklebur; [7]): 0
Cocklebur plant response rating (cocklebur; [4]): 40
Cocklebur plant response rating (cocklebur; [5]): 90
Corn plant response rating (0 to 100 scale) (corn; [6]): 0
Plant response rating, Corn (corn; [7]): 10
Corn plant response rating (corn; [4]): 30
Corn plant response rating (corn; [5]): 40
Ducksalad plant response rating (ducksalad): 80
Sedge, Umbrella plant response rating [2]: 80
Crabgrass, Large plant response rating (0 to 100 scale) (large crabgrass; [6]): 80
Plant response rating, Crabgrass, Large (large crabgrass; [7]): 100
Crabgrass, Large plant response rating (large crabgrass; [4]): 10
Crabgrass, Large plant response rating (large crabgrass; [5]): 70
Oat, Wild plant response rating (wild oat; [4]): 60
Oat, Wild plant response rating (wild oat; [5]): 90
Surinam Grass plant response rating (0 to 100 scale) (Surinam grass; [6]): 10
Plant response rating, Surinam Grass (Surinam grass; [7]): 70
Surinam Grass plant response rating (Surinam grass; [4]): 10
Surinam Grass plant response rating (Surinam grass; [5]): 60
Wheat plant response rating (wheat; [4]): 20
Wheat plant response rating (wheat; [5]): 30
Foxtail, Giant plant response rating (0 to 100 scale) (giant foxtail; [6]): 30
Plant response rating, Foxtail, Giant (giant foxtail; [7]): 90
Foxtail, Giant plant response rating (giant foxtail; [4]): 10
Foxtail, Giant plant response rating (giant foxtail; [5]): 30
Barnyardgrass plant response rating (0 to 100 scale) (barnyardgrass [3]; [6]): 10
Plant response rating, Barnyardgrass (barnyardgrass [3]; [7]): 90
Barnyardgrass plant response rating (barnyardgrass [3]; [4]): 20
Barnyardgrass plant response rating (barnyardgrass [3]; [5]): 80
Pigweed plant response rating (0 to 100 scale) (pigweed; [6]): 90
Plant response rating, Pigweed (pigweed; [7]): 100
Pigweed plant response rating (pigweed; [4]): 100
Pigweed plant response rating (pigweed; [5]): 100
Rice plant response rating (rice): 40
Velvetleaf plant response rating (0 to 100 scale) (velvetleaf; [6]): 10
Plant response rating, Velvetleaf (velvetleaf; [7]): 50
Velvetleaf plant response rating (velvetleaf; [4]): 50
Velvetleaf plant response rating (velvetleaf; [5]): 100
